Test results from US9630977B2, “Cephalosporin derivatives and pharmaceutical compositions thereof” (Legochem Biosciences, Inc., priority 2011, dated 2017).
≈ marks a conversion by molar mass, not a printed value.

test system: P. aeruginosa 37; assay: In vitro antibacterial activity test (broth microdilution); assay type: cell-based; conditions: Pseudomonas aeruginosa, 37, P. aeruginosa 37; read-out: MIC90
Description: (§1) To evaluate antibacterial activity of each of the compounds of Examples 1 to 68, in vitro antibacterial activity test was performed.
(§2) The in vitro antibacterial activity was evaluated by measuring MIC90 (ug/mL) of each of the compounds of Examples 1 to 68, which is defined as the lowest concentration of an antibiotic that will inhibit the visible growth of 90% of microorganisms after incubation as compared with a control group to which the antibiotic is not treated. MIC90 values were measured by the broth microdilution method developed by the Clinical and Laboratory Standards Institute (CLSI) (see CLSI M7-A5, Methods for Dilution Antimicrobial Susceptibility Test for Bacteria that Grow Aerobically-Fifth Edition (2000): CLSI, Villanova, Pa.).
(§3) In vitro antibacterial activity was measured with respect to the following 19 clinical isolates: M. catarrhalis; P. aeruginosa (5 strains); K. pneumoniae (6 strains); A. baumannii (3 strains); E. coli (2 strains); A. calcoaceticus; and E. cloacae.
(§4) Test compounds each (the cephalosporin derivative compounds prepared in Examples 1 to 68) were dissolved in DMSO at the concentration of 10,240 ug/mL, were diluted by two fold with DMSO, and then were diluted by twenty fold with sterilized distilled water. The final concentration in the antibacterial activity test was in the range of […] to 128 ug/mL, and the final concentration of DMSO used as an adjuvant was 2.5% (V/V).

Compared with CC(C)(O/N=C(\C(=O)N[C@@H]1C(=O)N2C(C(=O)[O-])=C(C[n+]3cnc(N)c(NCCCC(=O)O)c3)CSC12)c1csc(N)n1)C(=O)O (stereo partly drawn) [Compound 38], CC(C)(O/N=C(\C(=O)N[C@@H]1C(=O)N2C(C(=O)[O-])=C(C[n+]3cnc(N)c(NCCNC(=O)c4ccc(O)c(O)c4)c3)CSC12)c1csc(N)n1)C(=O)O (stereo partly drawn) [Compound 30] is lower in MIC90: > 128 µg/mL for the first, 2 µg/mL (≈ 2.64 µM) for the second.

test system: E. coli β4; assay: as above; assay type: cell-based; conditions: Escherichia coli, read-out: MIC90
Description: as §1, §2, §3, §4

Going from CC(C)(O/N=C(\C(=O)N[C@@H]1C(=O)N2C(C(=O)[O-])=C(C[n+]3cnc(N)c(NCCCC(=O)O)c3)CSC12)c1csc(N)n1)C(=O)O (stereo partly drawn) [Compound 38] to CC(C)(O/N=C(\C(=O)N[C@@H]1C(=O)N2C(C(=O)[O-])=C(C[n+]3cnc(N)c(NCCNC(=O)c4ccc(O)c(O)c4)c3)CSC12)c1csc(N)n1)C(=O)O (stereo partly drawn) [Compound 30], the MIC90 falls from 16 µg/mL (≈ 24.1 µM) to 2 µg/mL (≈ 2.64 µM) (8-fold).

test system: E. coli AG100; assay: as above; assay type: cell-based; conditions: Escherichia coli, AG100, E. coli AG100; read-out: MIC90
Description: as §1, §2, §3, §4

Going from CC(C)(O/N=C(\C(=O)N[C@@H]1C(=O)N2C(C(=O)[O-])=C(C[n+]3cnc(N)c(NCCCC(=O)O)c3)CSC12)c1csc(N)n1)C(=O)O (stereo partly drawn) [Compound 38] to CC(C)(O/N=C(\C(=O)N[C@@H]1C(=O)N2C(C(=O)[O-])=C(C[n+]3cnc(N)c(NCCNC(=O)c4ccc(O)c(O)c4)c3)CSC12)c1csc(N)n1)C(=O)O (stereo partly drawn) [Compound 30], the MIC90 falls from 8 µg/mL (≈ 12.1 µM) to 0.125 µg/mL (≈ 0.165 µM) (64-fold).

test system: P. aeruginosa 43; assay: as above; assay type: cell-based; conditions: Pseudomonas aeruginosa; P. aeruginosa 43; read-out: MIC90
Description: as §1, §2, §3, §4

CC(C)(O/N=C(\C(=O)N[C@@H]1C(=O)N2C(C(=O)[O-])=C(C[n+]3cnc(N)c(NCCNC(=O)c4ccc(O)c(O)c4)c3)CSC12)c1csc(N)n1)C(=O)O (stereo partly drawn) [Compound 30] gave an MIC90 of 0.5 µg/mL (≈ 0.661 µM).

test system: E. cloacae β19; assay: as above; assay type: cell-based; conditions: Enterobacter cloacae, read-out: MIC90
Description: as §1, §2, §3, §4

First: CC(C)(O/N=C(\C(=O)N[C@@H]1C(=O)N2C(C(=O)[O-])=C(C[n+]3cnc(N)c(NCCCC(=O)O)c3)CSC12)c1csc(N)n1)C(=O)O (stereo partly drawn) [Compound 38]
Second: CC(C)(O/N=C(\C(=O)N[C@@H]1C(=O)N2C(C(=O)[O-])=C(C[n+]3cnc(N)c(NCCNC(=O)c4ccc(O)c(O)c4)c3)CSC12)c1csc(N)n1)C(=O)O (stereo partly drawn) [Compound 30]
The MIC90 of the first is higher: > 128 µg/mL for the first, 4 µg/mL (≈ 5.29 µM) for the second.

test system: A. baumannii 46; assay: as above; assay type: cell-based; conditions: Acinetobacter baumannii; A. baumannii 46; read-out: MIC90
Description: as §1, §2, §3, §4

Compared with CC(C)(O/N=C(\C(=O)N[C@@H]1C(=O)N2C(C(=O)[O-])=C(C[n+]3cnc(N)c(NCCCC(=O)O)c3)CSC12)c1csc(N)n1)C(=O)O (stereo partly drawn) [Compound 38], CC(C)(O/N=C(\C(=O)N[C@@H]1C(=O)N2C(C(=O)[O-])=C(C[n+]3cnc(N)c(NCCNC(=O)c4ccc(O)c(O)c4)c3)CSC12)c1csc(N)n1)C(=O)O (stereo partly drawn) [Compound 30] is 130-fold lower in MIC90: 128 µg/mL (≈ 193 µM) for the first, 1 µg/mL (≈ 1.32 µM) for the second.

test system: P. aeruginosa 6065Y; assay: as above; assay type: cell-based; conditions: Pseudomonas aeruginosa, read-out: MIC90
Description: as §1, §2, §3, §4

Going from CC(C)(O/N=C(\C(=O)N[C@@H]1C(=O)N2C(C(=O)[O-])=C(C[n+]3cnc(N)c(NCCCC(=O)O)c3)CSC12)c1csc(N)n1)C(=O)O (stereo partly drawn) [Compound 38] to CC(C)(O/N=C(\C(=O)N[C@@H]1C(=O)N2C(C(=O)[O-])=C(C[n+]3cnc(N)c(NCCNC(=O)c4ccc(O)c(O)c4)c3)CSC12)c1csc(N)n1)C(=O)O (stereo partly drawn) [Compound 30], the MIC90 falls from 128 µg/mL (≈ 193 µM) to 0.5 µg/mL (≈ 0.661 µM) (260-fold).

test system: K. pneumoniae β14; assay: as above; assay type: cell-based; conditions: Klebsiella pneumoniae, read-out: MIC90
Description: as §1, §2, §3, §4

Going from CC(C)(O/N=C(\C(=O)N[C@@H]1C(=O)N2C(C(=O)[O-])=C(C[n+]3cnc(N)c(NCCCC(=O)O)c3)CSC12)c1csc(N)n1)C(=O)O (stereo partly drawn) [Compound 38] to CC(C)(O/N=C(\C(=O)N[C@@H]1C(=O)N2C(C(=O)[O-])=C(C[n+]3cnc(N)c(NCCNC(=O)c4ccc(O)c(O)c4)c3)CSC12)c1csc(N)n1)C(=O)O (stereo partly drawn) [Compound 30], the MIC90 falls from 64 µg/mL (≈ 96.4 µM) to 16 µg/mL (≈ 21.1 µM) (4-fold).

test system: P. aeruginosa 1912E; assay: as above; assay type: cell-based; conditions: Pseudomonas aeruginosa, 1912E, read-out: MIC90
Description: as §1, §2, §3, §4

Going from CC(C)(O/N=C(\C(=O)N[C@@H]1C(=O)N2C(C(=O)[O-])=C(C[n+]3cnc(N)c(NCCCC(=O)O)c3)CSC12)c1csc(N)n1)C(=O)O (stereo partly drawn) [Compound 38] to CC(C)(O/N=C(\C(=O)N[C@@H]1C(=O)N2C(C(=O)[O-])=C(C[n+]3cnc(N)c(NCCNC(=O)c4ccc(O)c(O)c4)c3)CSC12)c1csc(N)n1)C(=O)O (stereo partly drawn) [Compound 30], the MIC90 falls from 32 µg/mL (≈ 48.2 µM) to 1 µg/mL (≈ 1.32 µM) (32-fold).

test system: P. aeruginosa 40; assay: as above; assay type: cell-based; conditions: Pseudomonas aeruginosa, 40, P. aeruginosa 40; read-out: MIC90
Description: as §1, §2, §3, §4

First: CC(C)(O/N=C(\C(=O)N[C@@H]1C(=O)N2C(C(=O)[O-])=C(C[n+]3cnc(N)c(NCCCC(=O)O)c3)CSC12)c1csc(N)n1)C(=O)O (stereo partly drawn) [Compound 38]
Second: CC(C)(O/N=C(\C(=O)N[C@@H]1C(=O)N2C(C(=O)[O-])=C(C[n+]3cnc(N)c(NCCNC(=O)c4ccc(O)c(O)c4)c3)CSC12)c1csc(N)n1)C(=O)O (stereo partly drawn) [Compound 30]
The MIC90 of the first is 130-fold higher: 64 µg/mL (≈ 96.4 µM) for the first, 0.5 µg/mL (≈ 0.661 µM) for the second.

test system: A. calcoaceticus ATCC15473; assay: as above; assay type: cell-based; conditions: Acinetobacter calcoaceticus; A. calcoaceticus ATCC15473; read-out: MIC90
Description: as §1, §2, §3, §4

Compared with CC(C)(O/N=C(\C(=O)N[C@@H]1C(=O)N2C(C(=O)[O-])=C(C[n+]3cnc(N)c(NCCCC(=O)O)c3)CSC12)c1csc(N)n1)C(=O)O (stereo partly drawn) [Compound 38], CC(C)(O/N=C(\C(=O)N[C@@H]1C(=O)N2C(C(=O)[O-])=C(C[n+]3cnc(N)c(NCCNC(=O)c4ccc(O)c(O)c4)c3)CSC12)c1csc(N)n1)C(=O)O (stereo partly drawn) [Compound 30] is 16-fold lower in MIC90: 16 µg/mL (≈ 24.1 µM) for the first, 1 µg/mL (≈ 1.32 µM) for the second.

test system: K. pneumoniae 2011E; assay: as above; assay type: cell-based; conditions: Klebsiella pneumoniae, 2011E, K. pneumoniae 2011E; read-out: MIC90
Description: as §1, §2, §3, §4

First: CC(C)(O/N=C(\C(=O)N[C@@H]1C(=O)N2C(C(=O)[O-])=C(C[n+]3cnc(N)c(NCCCC(=O)O)c3)CSC12)c1csc(N)n1)C(=O)O (stereo partly drawn) [Compound 38]
Second: CC(C)(O/N=C(\C(=O)N[C@@H]1C(=O)N2C(C(=O)[O-])=C(C[n+]3cnc(N)c(NCCNC(=O)c4ccc(O)c(O)c4)c3)CSC12)c1csc(N)n1)C(=O)O (stereo partly drawn) [Compound 30]
The MIC90 of the first is 8-fold higher: 4 µg/mL (≈ 6.03 µM) for the first, 0.5 µg/mL (≈ 0.661 µM) for the second.

test system: A. baumannii 49; assay: as above; assay type: cell-based; conditions: Acinetobacter baumannii; A. baumannii 49; read-out: MIC90
Description: as §1, §2, §3, §4

CC(C)(O/N=C(\C(=O)N[C@@H]1C(=O)N2C(C(=O)[O-])=C(C[n+]3cnc(N)c(NCCCC(=O)O)c3)CSC12)c1csc(N)n1)C(=O)O (stereo partly drawn) [Compound 38] and CC(C)(O/N=C(\C(=O)N[C@@H]1C(=O)N2C(C(=O)[O-])=C(C[n+]3cnc(N)c(NCCNC(=O)c4ccc(O)c(O)c4)c3)CSC12)c1csc(N)n1)C(=O)O (stereo partly drawn) [Compound 30] cannot be ordered by MIC90: > 128 µg/mL for the first, > 128 µg/mL for the second.

test system: A. baumannii 52; assay: as above; assay type: cell-based; conditions: Acinetobacter baumannii; A. baumannii 52; read-out: MIC90
Description: as §1, §2, §3, §4

Compared with CC(C)(O/N=C(\C(=O)N[C@@H]1C(=O)N2C(C(=O)[O-])=C(C[n+]3cnc(N)c(NCCCC(=O)O)c3)CSC12)c1csc(N)n1)C(=O)O (stereo partly drawn) [Compound 38], CC(C)(O/N=C(\C(=O)N[C@@H]1C(=O)N2C(C(=O)[O-])=C(C[n+]3cnc(N)c(NCCNC(=O)c4ccc(O)c(O)c4)c3)CSC12)c1csc(N)n1)C(=O)O (stereo partly drawn) [Compound 30] is lower in MIC90: > 128 µg/mL for the first, 128 µg/mL (≈ 169 µM) for the second.
